Data: patent publication US6825230B2, “Spiro and dispiro 1,2,4-trixolane antimalarials” (Medicines for Malaria Venture MMV, priority 2002, dated 2004)

Tests used:
P. berghei ANKA strain [1] = assay: Onset of action and recrudescence experiment, single 100 mg/kg po; type: in vivo, Plasmodium berghei; conditions: single 100 mg/kg po (SSV) on day +3 post-infection; recrudescence = >5% parasitemia; followed up to 60 days; groups of five
Method: The onset of drug action was determined after a single fixed dose of 100 mg/kg (SSV vehicle) po to groups of five animals on day +3 post-infection (day 0).
Moro NMRI male mice (Fu Albino specific pathogen free) weighing 18±2 g were infected intravenously (i.v.) with 2×10^7 P. berghei ANKA strain-infected erythrocytes from donor mice on day 0 of the experiment. From donor mice with circa 30% parasitemia, heparinized blood was taken and diluted in physiological saline to 10^8 parasitized erythrocytes per ml. An aliquot (0.2 ml) of this suspension was injected i.v. into experimental and control groups of mice. […] Throughout the experiments, mice were kept in groups of three or five animals in Makrolon type II cages in an air-conditioned animal room at 22 to 23° C.

[2] = Differential scanning calorimetry (DSC) thermal stability; type: physicochemical; conditions: thermal decomposition
Schistosoma japonicum = assay: Effect in mice infected with Schistosoma japonicum; type: in vivo; conditions: for MFWB (mean female worm burden) x ± SD: control 11.6 ± 2.4; for MTWB (mean total worm burden) x ± SD: control 26.6 ± 4.2
S. haematobium = assay: In vivo activity against S. haematobium; design: species or system Schistosoma haematobium; conditions: 1 x 200 mg/kg p.o.
[3] = system: ANKA strain of P. berghei; assay: Single dose STI in vivo screen in infected mice; design: species or system Plasmodium berghei; conditions: for Survival (days) 10 mg/kg SSV po: single 10 mg/kg po in SSV; for Activity (%) 10 mg/kg SSV po: single 10 mg/kg po in standard suspending vehicle (SSV) on day 1 post-infection
[4] = system: Schistosoma mansoni adult worms (49-day-old); assay: Effect on adult schistosomes (49-day-old) in infected mice; type: in vivo; conditions: for % reduction of adult worms growth at day 49 after per os application of 400 mg/kg, TWR (%) / Adult worms day 49, per os 400 mg/kg, DEAD WORM (%): single 400 mg/kg per os
Method: Mice were infected with 100 Schistosoma mansoni cercariae on day 49 post-treatment. Each group was treated per os with OZ compounds at single doses of 200, 400, and 600 mg/kg. Untreated mice served as the control. All groups were killed 4 weeks after treatment and the liver and intestine were removed and separated. The liver and intestine were compressed and alive male and female worms could be seen and counted.

[5] = system: ANKA strain of Plasmodium berghei; assay: Single dose ED50/ED90/ED99 determination in infected mice; type: in vivo; conditions: single dose po in SSV on day 1 post-infection, parasitemia day 3, nonlinear fitting; for ED50: Plasmodium berghei, po
Summary of the method: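 Moro SPF or NMRI mice (three per group) infected with P. berghei ANKA were dosed once on day 1 post-infection in SSV (0.5% CMC, 0.5% benzyl alcohol, 0.4% Tween 80, 0.9% NaCl). Parasitemia reduction was scored on day 3; ED values (mg/kg) came from nonlinear fitting.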

[6] = system: Schistosoma mansoni 21-day-old schistosomules; assay: Effect on 21-day-old schistosomules in infected mice; type: in vivo; conditions: single 200 mg/kg per os, 21-day-old schistosomules
Method: Mice were infected with 100 Schistosoma mansoni cercariae on day 21 post-treatment. Each group was treated per os with trioxolanes at a single dose of 200 mg/kg. […] All groups were killed 4 weeks after treatment and the liver and intestine were removed and separated. The liver and intestine were compressed and alive male and female worms could be seen and counted. The effect of the compounds was evaluated by mean total and female worm burden.

[7] = system: chloroquine-sensitive NF54 strain of P. falciparum; assay: In vitro antimalarial semiautomated microdilution assay ([3H]-hypoxanthine incorporation), NF54 strain; type: cell-based, Plasmodium falciparum; conditions: Plasmodium falciparum, NF54, 72 h, read-out: IC50 (ng/ml) NF54, chloroquine-sensitive NF54 strain, 72 h incubation
Summary of the method: (§1)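 Semiautomated microdilution against intraerythrocytic P. falciparum from asynchronous stock cultures, with growth tracked by [3H]-hypoxanthine incorporation. IC50 values were estimated by Logit regression analysis.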

[8] = system: chloroquine-resistant K1 strain of P. falciparum; assay: In vitro antimalarial semiautomated microdilution assay ([3H]-hypoxanthine incorporation), K1 strain; type: cell-based, Plasmodium falciparum; conditions: Plasmodium falciparum, K1, 72 h, read-out: IC50 (ng/ml) K1, chloroquine-resistant K1 strain, 72 h incubation
Summary of the method: as §1

P. berghei ANKA strain [9] = assay: Divided 3x10 mg/kg vs single 1x30 mg/kg po dose in infected mice; type: in vivo, Plasmodium berghei
[10] = Pharmacokinetics in dogs (IV and oral dosing); conditions: in vivo, dog; for bioavailability: some values marked (V), not defined
Source text: (§2) Artesunate is listed as a reference compound.

[11] = Pharmacokinetics in rats (IV and oral dosing); conditions: in vivo, rat
Source text: as §2

P. berghei ANKA strain [12] = assay: Prophylactic activity, single 100 mg/kg po at various times before infection; type: in vivo, Plasmodium berghei; conditions: parasitemia reduction on day 3 post-infection
P. berghei ANKA strain [13] = assay: Divided 3x3 mg/kg and 3x1 mg/kg po doses in infected mice; type: in vivo, Plasmodium berghei; conditions: for Activity (%): percent reduction of parasitemia vs control on day 4
Summary of the method: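 Male NMRI mice were infected i.v. with 2×10^7 P. berghei-parasitized erythrocytes on day 0, then dosed orally in SSV vehicle on days 1, 2 and 3 post-infection.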

[14] = 1 x 200 mg/kg p.o. (table footnote)
[15] = 1 x 400 mg/kg p.o. (table footnote)
[16] = age of worm 7 days, 200 mg/kg x 1
[17] = age of worm 35 days, 200 mg/kg x 1
[18] = age of worm 35 days, 400 mg/kg x 1
[19] = percent reduction in parasitemia on day 3
[20] = 49-day-old adults, total worm reduction rate
[21] = percentage of dead worm in the liver
[22] = 3 × 1 mg/kg p.o. SSV on days 1, 2, 3 post-infection
[23] = 3 × 3 mg/kg p.o. SSV on days 1, 2, 3 post-infection

In the case of `C[C@@H]1CC[C@H]2[C@@H](C)C(=O)O[C@@H]3O[C@@]4(C)CC[C@@H]1[C@]32OO4` [Artemisinin, artemisinin, reference compound], the “Time of Recrudescence” value (P. berghei ANKA strain [1]) is reported as 8.4 days and the “Tm, dec (DSC)” value [2] is reported as 181 °C.

With `Cc1ccc(S(=O)(=O)O)cc1.NC[C@H]1CC[C@]2(CC1)OOC1(O2)C2CC3CC(C2)CC1C3` (stereo partly drawn) [OZ207] the “S. Japonicum FWR” value (Schistosoma japonicum; [14]) was 95%, the “S. Japonicum TWR” value (Schistosoma japonicum; [14]) was 66% and the “S. Japonicum FWR” value (Schistosoma japonicum; [15]) was 94%. The “S. Japonicum TWR” value (Schistosoma japonicum; [15]) was 84%, the “Mice without female worm” value (Schistosoma japonicum; [16]) was 0/8 and the “MFWB (mean female worm burden) x ± SD” value (Schistosoma japonicum; [16]) was 2.1 ± 1.0. The “MTWB (mean total worm burden) x ± SD” value (Schistosoma japonicum; [16]) was 5.4 ± 2.4, the “Mice without female worm” value (Schistosoma japonicum; [17]) was 4/7 and the “MFWB (mean female worm burden) x ± SD” value (Schistosoma japonicum; [17]) was 0.6 ± 0.7. For the same compound, the “MTWB (mean total worm burden) x ± SD” value (Schistosoma japonicum; [17]) was 9.1 ± 3.9, the “Mice without female worm” value (Schistosoma japonicum; [18]) was 4/6 and the “MFWB (mean female worm burden) x ± SD” value (Schistosoma japonicum; [18]) was 0.7 ± 1.2. For the same compound, the “MTWB (mean total worm burden) x ± SD” value (Schistosoma japonicum; [18]) was 4.3 ± 1.2, the “S. haematobium DEAD WORM” value (S. haematobium) was 68% and the “S. haematobium TWR” value (S. haematobium) was 73%. The “Time of Recrudescence (days)” value (P. berghei ANKA strain [1]) was “no recrudescence observed”, the “Survival (days) 10 mg/kg po” value ([3]; single 10 mg/kg po in 3% ethanol and 7% Tween 80, untreated 6-7 days) was 9.3 days and the “Activity (%) 10 mg/kg po” value ([3]; single 10 mg/kg po in 3% ethanol and 7% Tween 80 on day 1 post-infection, percent reduction in parasitemia on day 3) was 99.96%. The “Survival (days) 10 mg/kg SSV po” value ([3]; untreated 6-7 days) was 12.0 days, the “Activity (%) 10 mg/kg SSV po” value [3, 19] was 99.98% and the “Survival (days) 10 mg/kg sc” value ([3]; single 10 mg/kg sc in 3% ethanol and 7% Tween 80, untreated 6-7 days) was 11.3 days. The “Activity (%) 10 mg/kg sc” value ([3]; single 10 mg/kg sc in 3% ethanol and 7% Tween 80 on day 1 post-infection, percent reduction in parasitemia on day 3) was 99.98%, the “% reduction of adult worms growth at day 49 after per os application of 200 mg/kg, TWR (%)” value ([4]; single 200 mg/kg per os, 49-day-old adults, total worm reduction rate) was 32% and the “Adult worms day 49, per os 200 mg/kg, DEAD WORM (%)” value ([4]; single 200 mg/kg per os, percentage of dead worm in the liver) was 17%. The “% reduction of adult worms growth at day 49 after per os application of 400 mg/kg, TWR (%)” value [4, 20] was 35%, the “Adult worms day 49, per os 400 mg/kg, DEAD WORM (%)” value [4, 21] was 21% and the “% reduction of adult worms growth at day 49 after per os application of 600 mg/kg, TWR (%)” value ([4]; single 600 mg/kg per os, 49-day-old adults, total worm reduction rate) was 11/ %. For the same compound, the “Adult worms day 49, per os 600 mg/kg, DEAD WORM (%)” value ([4]; single 600 mg/kg per os, percentage of dead worm in the liver) was 24++ %, the ED50 [5] was 0.37 mg/kg and the “ED90” value [5] was 1.2 mg/kg. The “ED99” value [5] was 3.0 mg/kg, the “% reduction of schistosomule growth at day 21 after per os application of 200 mg/kg, FWR (%)” value ([6]; female worm reduction rate) was 100% and the “% reduction of schistosomule growth at day 21 after per os application of 200 mg/kg, TWR (%)” value ([6]; total worm reduction rate) was 93%. The IC50 [7] was 0.57 ng/mL and the IC50 [8] was 0.33 ng/mL.

In the case of `Cc1ccc(S(=O)(=O)O)cc1.O=C(C[C@H]1CC[C@]2(CC1)OO[C@]1(O2)C2CC3CC(C2)CC1C3)N1CCNCC1` [OZ279], the “Survival (days) 3 × 10 mg/kg p.o. SSV” value (P. berghei ANKA strain [9]; 10 mg/kg po on days 1, 2, 3 post-infection) is reported as 25.4 days, the “Activity (%) 3 × 10 mg/kg p.o. SSV” value (P. berghei ANKA strain [9]; 10 mg/kg po on days 1, 2, 3 post-infection, parasitemia reduction on day 4) is reported as 100% and the “Survival (days) 1 × 30 mg/kg p.o. SSV” value (P. berghei ANKA strain [9]; single 30 mg/kg po on day 1 post-infection) is reported as 14.8 days. The “Activity (%) 1 × 30 mg/kg p.o. SSV” value (P. berghei ANKA strain [9]; single 30 mg/kg po on day 1 post-infection, parasitemia reduction on day 4) was 99.95%, the “Cures 1 × 30 mg/kg p.o. SSV” value (P. berghei ANKA strain [9]; single 30 mg/kg po, cure = survival to day 30 post-infection) was 0/5 and the “Time of Recrudescence” value (P. berghei ANKA strain [1]) was 15.0 days. For the same compound, the “Activity (%) 3 mg/kg SSV po” value ([3]; single 3 mg/kg po in SSV, percent reduction in parasitemia on day 3) was 99.42%, the “Survival (days) 10 mg/kg SSV po” value ([3]; untreated 6-7 days) was 9.3 days and the “Activity (%) 10 mg/kg SSV po” value [3, 19] was 99.98%. The half-life ([10]; IV 10 mg/kg) was 2.96 h, the half-life ([10]; oral 10 mg/kg) was 3.26 h and the bioavailability ([10]; oral 10 mg/kg, read-out: Dog Oral Bioavailability 10 mg/kg) was 32.8%. It also gave a bioavailability ([10]; oral 25 mg/kg, read-out: Dog Oral Bioavailability 25 mg/kg) of 55.7%, a half-life ([11]; IV 10 mg/kg) of 1.68 h and a bioavailability ([11]; oral 10 mg/kg, read-out: Rat Oral Bioavailability 10 mg/kg) of 37.2%. For the same compound, the half-life ([11]; oral 25 mg/kg) was 2.78 h, the bioavailability ([11]; oral 25 mg/kg, read-out: Rat Oral Bioavailability 25 mg/kg) was 71.1% and the “% reduction of adult worms growth at day 49 after per os application of 400 mg/kg, TWR (%)” value [4, 20] was 0%. For the same compound, the “Adult worms day 49, per os 400 mg/kg, DEAD WORM (%)” value [4, 21] was 12%, the ED50 [5] was 0.63 mg/kg and the “ED90” value [5] was 1.8 mg/kg. The “ED99” value [5] was 3.9 mg/kg, the “Prophylactic Activity (%) 24 h” value (P. berghei ANKA strain [12]; single 100 mg/kg po 24 h before infection) was 97% and the “Prophylactic Activity (%) 48 h” value (P. berghei ANKA strain [12]; single 100 mg/kg po 48 h before infection) was 27%. For the same compound, the “Prophylactic Activity (%) 72 h” value (P. berghei ANKA strain [12]; single 100 mg/kg po 72 h before infection) was 14%, the “Prophylactic Activity (%) 0 h” value (P. berghei ANKA strain [12]; single 100 mg/kg po at 0 h) was 100% and the IC50 [7] was 0.24 ng/mL. For the same compound, the “Survival” value (P. berghei ANKA strain [13]; [22]) was 8.8 days, the “Activity (%)” value (P. berghei ANKA strain [13]; [22]) was 83% and the “Survival” value (P. berghei ANKA strain [13]; [23]) was 14.8 days. For the same compound, the “Activity (%)” value (P. berghei ANKA strain [13]; [23]) was 100% and the IC50 [8] was 0.21 ng/mL.
